From patent US6676950B2, “Neurokinin receptor antagonists and methods of use thereof for inhibiting HIV infection” (The Children's Hospital of Philadelphia, priority 2001, dated 2004) come the findings set out here.

Test [1] relates to HIV Bal strain. In words: HIV-induced syncytia formation in MDM. The test is classed as cell-based. As to conditions: 10^−7M; 12 days after infection; light microscope. How it is done: Syncytia formation: To study the effect of neuropeptide antagonists on HIV-induced syncytia formation in MDM, 7-day-cultured macrophages were incubated in the presence or absence of CP-96,345 (10^−7M) for 2 h and then infected with HIV Bal strain. MDM which were neither incubated with CP-96,345 nor infected with HIV were used as a cell culture control. The morphology of HIV-induced syncytia formation was observed and photographed by a light microscopy (X 400) 12 days after HIV infection.

For test [2], the system named is HIV Bal strain. The experiment in a line: HIV gag mRNA in infected MDM by RT-PCR / real time RT-PCR. The class given is cell-based. As to conditions: 12 days after infection. As for the experimental part:
HIV Infection: After 2 h incubation with or without the reagents described above, the cells were infected with equal amounts of cell-free HIV based on p24 antigen content (20 ng/10^6 cells) overnight, and then washed to remove unbound virus. Fresh media containing SP and/or CP-96,345 or anti-SP antibody were added to the MDM as described above. The culture media and the reagents were replaced twice weekly. The culture supernatants were harvested for HIV reverse transcriptase (RT) activity determinations. After HIV infection, the MDM were incubated for 8 to 12 days. At the termination of the experiments, cellular RNA was extracted for assessment of HIV gag gene expression using RT-PCR or real time RT-PCR assays.
Total RNA was isolated from human peripheral blood MDM (10^6 cells) using Tri-Reagent (Molecular Research Center, Cincinnati, Ohio) as we previously reported (16).
Reverse transcription: Total RNA (1 μg) was reverse transcribed using Reverse Transcription System (Promega, Madison, Wis.) with the specific primers (antisense) for HIV gag (5′-[…]-[…]-3′; SEQ ID NO: 1) (27) or CCR5 (5′-[…]-3′; SEQ ID NO: 2) (32) for 1 h at 42° C. RT reactions was terminated by incubating the reaction mixture at 99° C. for 5 min and then kept at 4° C. The resulting cDNA was used as a template for PCR amplification or real time PCR quantification. […]
Background: Real-time PCR tracks product formation cycle by cycle.

Another test has as its system SP mRNA. The experiment in a line: SP mRNA expression in MDM by real-time RT-PCR. The class given is cell-based, human. As to conditions: 4 hours; percentage of untreated MDM. How it is done:
FIG. 17. A graph showing the effect of CP-96,345 on SP mRNA expression in MDM. The MDM were incubated with (+) or without (−) the NK-1R antagonist at the indicated concentration for 4 hours. The SP mRNA levels were determined by a real-time RT-PCR. The SP mRNA levels in the CP-96,345 treated MDM are expressed as a percentage of that in untreated MDM which are defined as 100%.
The effect of CP-96,345 on SP mRNA expression in MDM was also determined. The MDM were incubated with (+) or without (−) the NK-1R antagonist at the indicated concentration for 4 hours. The SP mRNA levels were determined by a real-time RT-PCR.

Regarding `COc1ccccc1CN[C@H]1C2CCN(CC2)[C@H]1C(c1ccccc1)c1ccccc1` [CP-96,345, [2S,3S)-cis-2-(diphenylmethyl)-N-[(2-methoxyphenyl)-methyl]-1-azabicyclo [[2.2.2]-octan-3-amine]], the “giant syncytia formation induced by HIV Bal strain infection” value in the test on HIV Bal strain [1] was “failed to develop the giant syncytia”. Further, the “HIV gag mRNA expression (RT-PCR)” value in the test on HIV Bal strain [2] (10^−11 to 10^−7 M) is “potently inhibited”. For the same compound, the “HIV gag gene mRNA copy numbers (real time RT-PCR)” value with HIV Bal strain [2] (same samples) was “significantly suppress”. In addition, the “SP mRNA expression in MDM (real-time RT-PCR)” value in the test on SP mRNA is listed as “significantly inhibited”.
